Assay results reported in PMC10321319 (Nature, 2022).
≈ marks a conversion by molar mass, not a printed value. Like-named read-outs stand apart in the source and are kept apart here. Positions of bridges follow the written chain, without caps; N, C: chain ends. Non-standard residues stand in square brackets, D forms with d. Residues, ends and D or L forms follow the SMILES beside them. *: point of attachment. Octanoyl(3-OH) = CCCCCC(O)CC(=O)*; Decanoyl = CCCCCCCCCC(=O)*; Nonanoyl = CCCCCCCCC(=O)*; X1 = CC[C@H](C)CCCCC(=O)*; dDab = NCC[C@@H](N)C(=O)O; Heptanoyl = CCCCCCC(=O)*; Octanoyl = CCCCCCCC(=O)*; Dab = NCC[C@H](N)C(=O)O

Tests used:
[1] = tested on: K. pneumoniae ATCC13883 (pMQ124-mcr-1); conditions: for Fold increase in MIC: K. pneumoniae 13883 upon introduction of mcr-1; for MIC: n=2
[2] = tested on: E. cloacae ATCC13047 (ΔphoP/Q+phoP/Q); conditions: for Fold increase in MIC: E. cloacae ATCC13047 upon introduction of phoP/Q; for MIC: n=2
[3] = tested on: pairs of colistin sensitive and resistant strains of K. pneumoniae and A. baumannii (mcr-1 plasmid); type: cell-based
A. baumannii SM1536 = conditions: n=2
P. aeruginosa PA01 = assay: MIC, microbial susceptibility assay; type: cell-based, Pseudomonas aeruginosa; conditions: n=2
A. baumannii ATCC17978 [4] = assay: MIC, microbial susceptibility assay; type: cell-based, Acinetobacter baumannii; conditions: n=2
[5] = tested on: E. cloacae ATCC13047 (ΔphoP/Q); conditions: n=2
K. pneumoniae 10031 = conditions: n=2
E. cloacae 0150 = assay: MIC, microbial susceptibility assay; type: cell-based, Enterobacter cloacae; conditions: n=2
K. pneumoniae ATCC13883 = conditions: n=2
P. vulgaris 49132 = conditions: Proteus vulgaris, intrinsically colistin resistant (L-Ara4N)
S. aureus SH1000 = assay: MIC, microbial susceptibility assay; type: cell-based; conditions: n=2
[6] = tested on: S. typhimurium 0635 (mcr-1); assay: MIC, microbial susceptibility assay; type: cell-based; conditions: S. typhimurium 0635, mcr-1 clinical isolate; n=2
[7] = tested on: A. baumannii ATCC17978 (pMQ124xlab1-mcr-1); assay: MIC, microbial susceptibility assay; type: cell-based, Acinetobacter baumannii; conditions: n=2
[8] = tested on: A. baumannii SM1536 (pMQ124xlab1-mcr-1); assay: MIC, microbial susceptibility assay; type: cell-based, Acinetobacter baumannii; conditions: for Fold increase in MIC: A. baumannii SM1536 upon introduction of mcr-1
E. faecium Com15 = assay: MIC, microbial susceptibility assay; type: cell-based; conditions: n=2
[9] = tested on: K. pneumoniae 0497 (mcr-1); conditions: n=2
A. baumannii ATCC17978 [10] = assay: CHIR-090 inhibition assay, growth curves; type: cell-based, Acinetobacter baumannii; conditions: 48 h growth curve
[11] = tested on: A. baumannii 0301 (mcr-1); assay: MIC, microbial susceptibility assay; type: cell-based, Acinetobacter baumannii; conditions: A. baumannii 0301 upon introduction of mcr-1
A. baumannii 0295 = conditions: XDR A. baumannii 0295, mcr-1 −; ref CDC & FDA Antibiotic Resistant Isolate Bank; cited from earlier work
A. baumannii 0296 = conditions: XDR A. baumannii 0296, mcr-1 −; ref CDC & FDA Antibiotic Resistant Isolate Bank; cited from earlier work
A. baumannii 0301 = conditions: XDR A. baumannii 0301, mcr-1 −; ref CDC & FDA Antibiotic Resistant Isolate Bank; cited from earlier work
A. baumannii 0286 = conditions: XDR A. baumannii 0286, mcr-1 −; ref CDC & FDA Antibiotic Resistant Isolate Bank; cited from earlier work
A. baumannii 0282 = conditions: XDR A. baumannii 0282, mcr-1 −; ref CDC & FDA Antibiotic Resistant Isolate Bank; cited from earlier work
A. baumannii 0287 = conditions: XDR A. baumannii 0287, mcr-1 −; ref CDC & FDA Antibiotic Resistant Isolate Bank; cited from earlier work

Q: For `CC[C@H](C)CCCCC(=O)N[C@@H](CCN)C(=O)N[C@H](C(=O)N[C@H](CCN)C(=O)N[C@H]1CCNC(=O)[C@H](CC(C)C)NC(=O)[C@H](CCN)NC(=O)[C@H](CCN)NC(=O)[C@H]([C@@H](C)CC)NC(=O)[C@@H](CC(C)C)NC(=O)[C@H](CCN)NC1=O)[C@@H](C)O` [Macolacin-3Dab] (X1-[Dab]T[dDab][Dab][Dab][dL]I[Dab][Dab]L; lactam 4-C), which “Fold increase in MIC” value [1] is on record?
A: 8

Q: What about the “Fold increase in MIC” value [2] of the same molecule?
A: 4

Q: What does the source list for Polymyxin B?
A: increase in MIC upon mcr-1 expression [3]: ≥ 32 fold; MIC (A. baumannii SM1536): 1 µg/mL; Fold increase in MIC [1]: 128; MIC ([1]; K. pneumoniae ATCC13883 (pMQ124-mcr-1)): 128 µg/mL; MIC ([2]; E. cloacae ATCC13047 (ΔphoP/Q+phoP/Q)): 32 µg/mL; Fold increase in MIC [2]: 32; susceptibility of strain ([2]; E. cloacae phoP/Q deletion rescued with phoP/Q plasmid): resistant; MIC (P. aeruginosa PA01): 2 µg/mL; MIC (A. baumannii ATCC17978 [4]; A. baumannii 17978, ESKAPE panel): 0.5 µg/mL; MIC (A. baumannii ATCC17978 [4]; A. baumannii ATCC17978, mcr-1 engineered pairs): 0.5 µg/mL; MIC ([5]; E. cloacae ATCC13047 (ΔphoP/Q)): 1 µg/mL; MIC (K. pneumoniae 10031): 1 µg/mL; MIC (E. cloacae 0150): 1 µg/mL; MIC (K. pneumoniae ATCC13883): 1 µg/mL; MIC (P. vulgaris 49132): > 128 µg/mL; MIC (S. aureus SH1000): >128 µg/mL; MIC [6]: 16 µg/mL; MIC [7]: 16 µg/mL; MIC ([8]; A. baumannii SM1536 (pMQ124xlab1-mcr-1), n=2): 128 µg/mL; MIC (E. faecium Com15): >128 µg/mL; MIC ([9]; K. pneumoniae 0497, mcr-1 clinical isolate): 32 µg/mL

Q: For `C[C@@H](O)[C@H](NC(=O)c1ccc(C#Cc2ccc(CN3CCOCC3)cc2)cc1)C(=O)NO` [CHIR-090], which “A. baumannii growth with CHIR-090 alone” value (A. baumannii ATCC17978 [10]) is on record?
A: does not inhibit A. baumannii growth

Q: With `CCCCCCCCCC(=O)N[C@@H](CCN)C(=O)N[C@H](C(=O)N[C@H](CO)C(=O)N[C@H]1CCNC(=O)[C@H](CC(C)C)NC(=O)[C@H](CCN)NC(=O)[C@H](CCN)NC(=O)[C@H]([C@@H](C)CC)NC(=O)[C@@H](CC(C)C)NC(=O)[C@H](CCN)NC1=O)[C@@H](C)O` [L4] (Decanoyl-[Dab]T[dS][Dab][Dab][dL]I[Dab][Dab]L; lactam 4-C; N-terminus assumed) as the molecule, how does the “Fold increase in MIC” value [8] read?
A: 8

Q: And the “Fold increase in MIC” value [11]?
A: 1

Q: For `CCCCCCC(=O)N[C@@H](CCN)C(=O)N[C@H](C(=O)N[C@H](CO)C(=O)N[C@H]1CCNC(=O)[C@H](CC(C)C)NC(=O)[C@H](CCN)NC(=O)[C@H](CCN)NC(=O)[C@H]([C@@H](C)CC)NC(=O)[C@@H](CC(C)C)NC(=O)[C@H](CCN)NC1=O)[C@@H](C)O` [L1] (Heptanoyl-[Dab]T[dS][Dab][Dab][dL]I[Dab][Dab]L; lactam 4-C; N-terminus assumed), which “Fold increase in MIC” value [8] is on record?
A: 8

Q: And the “Fold increase in MIC” value [11]?
A: 2

Q: Which results are given for `CCCCCCCC(=O)N[C@@H](CCN)C(=O)N[C@H](C(=O)N[C@H](CO)C(=O)N[C@H]1CCNC(=O)[C@H](CC(C)C)NC(=O)[C@H](CCN)NC(=O)[C@H](CCN)NC(=O)[C@H]([C@@H](C)CC)NC(=O)[C@@H](CC(C)C)NC(=O)[C@H](CCN)NC1=O)[C@@H](C)O` [L2] (Octanoyl-[Dab]T[dS][Dab][Dab][dL]I[Dab][Dab]L; lactam 4-C; N-terminus assumed)?
A: Fold increase in MIC [8]: 8; Fold increase in MIC [11]: 2

Q: Which MIC (A. baumannii 0295) does the source give for `NCC[C@H](O)C(=O)N[C@@H]1C[C@H](N)[C@@H](O[C@H]2O[C@H](CN)[C@@H](O)[C@H](O)[C@H]2O)[C@H](O)[C@H]1O[C@H]1O[C@H](CO)[C@@H](O)[C@H](N)[C@H]1O` [Amikacin] here?
A: 4 µg/mL (≈ 6.83 µM)

Q: What about the MIC (A. baumannii 0296) of the same molecule?
A: >64 µg/mL

Q: What about the MIC (A. baumannii 0301) of the same molecule?
A: 64 µg/mL (≈ 109 µM)

Q: And the MIC (A. baumannii 0286)?
A: >64 µg/mL

Q: What about the MIC (A. baumannii 0282) of the same molecule?
A: >64 µg/mL

Q: And the MIC (A. baumannii 0287)?
A: 32 µg/mL (≈ 54.6 µM)

Q: For `O=C(O)c1cn(C2CC2)c2cc(N3CCNCC3)c(F)cc2c1=O` [Ciprofloxacin], which MIC (A. baumannii 0295) is on record?
A: >8 µg/mL

Q: What about the MIC (A. baumannii 0296) of the same molecule?
A: >8 µg/mL

Q: And the MIC (A. baumannii 0301)?
A: >8 µg/mL

Q: What about the MIC (A. baumannii 0286) of the same molecule?
A: >8 µg/mL

Q: And the MIC (A. baumannii 0282)?
A: >8 µg/mL

Q: What about the MIC (A. baumannii 0287) of the same molecule?
A: >8 µg/mL

Q: What does the source list for `CCCCCCCCC(=O)N[C@@H](CCN)C(=O)N[C@H](C(=O)N[C@H](CO)C(=O)N[C@H]1CCNC(=O)[C@H](CC(C)C)NC(=O)[C@H](CCN)NC(=O)[C@H](CCN)NC(=O)[C@H]([C@@H](C)CC)NC(=O)[C@@H](CC(C)C)NC(=O)[C@H](CCN)NC1=O)[C@@H](C)O` [L3] (Nonanoyl-[Dab]T[dS][Dab][Dab][dL]I[Dab][Dab]L; lactam 4-C; N-terminus assumed)?
A: Fold increase in MIC [8]: 4; Fold increase in MIC [11]: 2

Q: Which MIC (A. baumannii 0295) does the source give for `CN(C)[C@@H]1C(O)=C(C(N)=O)C(=O)[C@@]2(O)C(O)=C3C(=O)c4c(O)cccc4[C@@](C)(O)[C@H]3C[C@@H]12` [Tetracycline] here?
A: >32 µg/mL

Q: And the MIC (A. baumannii 0296)?
A: 32 µg/mL (≈ 72 µM)

Q: And the MIC (A. baumannii 0301)?
A: >32 µg/mL

Q: What about the MIC (A. baumannii 0286) of the same molecule?
A: >32 µg/mL

Q: And the MIC (A. baumannii 0282)?
A: >32 µg/mL

Q: What about the MIC (A. baumannii 0287) of the same molecule?
A: >32 µg/mL

Q: Which results are given for `CO/N=C(\C(=O)N[C@@H]1C(=O)N2C(C(=O)[O-])=C(C[N+]3(C)CCCC3)CS[C@H]12)c1csc(N)n1` [Cefepime]?
A: MIC (A. baumannii 0295): >32 µg/mL; MIC (A. baumannii 0296): >32 µg/mL; MIC (A. baumannii 0301): >32 µg/mL; MIC (A. baumannii 0286): 32 µg/mL (≈ 66.6 µM); MIC (A. baumannii 0282): >32 µg/mL; MIC (A. baumannii 0287): 32 µg/mL (≈ 66.6 µM)

Q: For `CC[C@H](C)CCCCC(=O)N[C@@H](CCN)C(=O)N[C@H](C(=O)N[C@H](CO)C(=O)N[C@H]1CCNC(=O)[C@H]([C@@H](C)O)NC(=O)[C@H](CCN)NC(=O)[C@H](CCN)NC(=O)[C@H]([C@@H](C)CC)NC(=O)[C@@H](CC(C)C)NC(=O)[C@H](CCN)NC1=O)[C@@H](C)O` [Macolacin-10Thr] (X1-[Dab]T[dS][Dab][Dab][dL]I[Dab][Dab]T; lactam 4-C), which MIC ([1]; K. pneumoniae 13883 (mcr-1), SAR table) is on record?
A: 64 µg/mL (≈ 55.3 µM)

Q: What about the “Fold increase in MIC” value [1] of the same molecule?
A: 64

Q: What about the MIC ([2]; E. cloacae ATCC13047 (Δ phoP/Q+phoP/Q), SAR table) of the same molecule?
A: 16 µg/mL (≈ 13.8 µM)

Q: What about the “Fold increase in MIC” value [2] of the same molecule?
A: 16

Q: And the MIC ([5]; E. cloacae ATCC13047 (Δ phoP/Q), SAR table)?
A: 1 µg/mL (≈ 0.865 µM)

Q: And the MIC ([9]; K. pneumoniae 0497 (mcr-1), SAR table)?
A: 8 µg/mL (≈ 6.92 µM)

Q: For `CCN1CCN(C(=O)N[C@@H](C(=O)N[C@@H]2C(=O)N3[C@@H]2SC(C)(C)[C@@H]3C(=O)O)c2ccccc2)C(=O)C1=O` [Piperacillin], which MIC (A. baumannii 0295) is on record?
A: >128 µg/mL

Q: What about the MIC (A. baumannii 0296) of the same molecule?
A: >128 µg/mL

Q: And the MIC (A. baumannii 0301)?
A: >128 µg/mL

Q: And the MIC (A. baumannii 0286)?
A: >128 µg/mL

Q: And the MIC (A. baumannii 0282)?
A: >128 µg/mL

Q: And the MIC (A. baumannii 0287)?
A: >128 µg/mL

Q: Which “Fold increase in MIC” value [8] does the source give for `CCCCCC(O)CC(=O)N[C@@H](CCN)C(=O)N[C@H](C(=O)N[C@H](CO)C(=O)N[C@H]1CCNC(=O)[C@H](CC(C)C)NC(=O)[C@H](CCN)NC(=O)[C@H](CCN)NC(=O)[C@H]([C@@H](C)CC)NC(=O)[C@@H](CC(C)C)NC(=O)[C@H](CCN)NC1=O)[C@@H](C)O` (stereo partly drawn) [L5] ({Octanoyl(3-OH)}-[Dab]T[dS][Dab][Dab][dL]I[Dab][Dab]L; lactam 4-C; N-terminus assumed) here?
A: 4

Q: And the “Fold increase in MIC” value [11]?
A: 2
